Assay results as given in US20030005484A1, “Microbiocidal and pesticidal aromatic aldehydes” (ProGuard, Inc., priority 1994, published 2003).
Where two headings read alike, the source gives them in different places.

How the values were obtained:
[1] = tested on: root-knot nematode, Meloidogyne javanica; type: in vivo
Description: In a double blind study, concentrations of the subject aldehyde compounds were tested for activity against root-knot nematode, Meloidogyne javanica. Nematodes were put in direct contact with the chemical and at 24 hour intervals, mortality was assessed both visually and by probing. Meloidogyne javanica were produced using hydroponics. The nematodes were harvested and used within 24 hours.
Approximately 100 nematodes in 0.07 mls of water were pipetted into a syracuse dish (Fisher) and 1 ml of test formulation was immediately pipetted into each dish. The dishes were then placed into plastic bags to retain moisture and prevent evaporation. Four syracuse dishes were used for each solution test formulation. […] Moving nematodes were counted as living.

powdery mildew [2] = assay: powdery mildew on Cabernet Sauvignon grapes; type: in vivo; conditions: for % CLUSTERS INFECTED-FIRST DAY / MEAN # OF BERRIES/CLUSTER INFECTED FIRST DAY: 2 days post treatment; for % CLUSTERS INFECTED-SECOND DAY / MEAN # OF BERRIES/CLUSTER INFECTED SECOND DAY: 10 days post-treatment
Description: The effect of 0.3% and 0.6% cinnamic aldehyde on powdery mildew on grapes was examined. A 3 acre block of Cabernet Sauvignon that was severely infested with powdery mildew (primarily on grape berries) was sprayed with either 0.3% or 0.6% cinnamic aldehyde using a 300 gal. Pul-Blast sprayer at 160 psi fitted with 10, D4 nozels using a #56 core. Approximately 1.25 acres were treated for each cinnamic aldehyde concentration. A 0.5 acre plot of control grape vines were sprayed with a tank mix at label rates of other commercially available pesticides (Abound, Provado, Kelthan, Silwet L-77 and a foliar nutrient spray( 10-12-0+2% zinc)) costing approximately $87.00/acre. For the two cinnamic aldehyde treatments and control plots, 2 rows per treatment were visually inspected for severe powdery mildew infections and marked with flagging tape. At least 10 locations were marked in each row inspected and defined sampling positions for determining efficacy of the treatments. Water sensitive cards were placed at the level of the cordon wire (where grape clusters are located) and were used to monitor spray coverage. Two and ten days subsequent to treatment, samples from two sides of each vine (to include variable powdery mildew incidence due to sun exposure) were examined for powdery mildew. […] 0.3% cinnamic aldehyde reduced powdery mildew infection of grapes to a level similar to the positive control while 0.6% cinnamic aldehyde reduced powdery mildew infection even more than the standard. Upon examination of the mean number of berries infected with powdery mildew, again, it was evident that both 0.3% and 0.6% cinnamic aldehyde reduced the extent of powdery mildew infection to levels that were to similar or less than the positive control respectively.

grape phylloxera = assay: reinoculation bioassay of roots excised from leaf-treated vines; type: in vivo, Daktulosphaira vitifoliae; conditions: for phylloxera counted: 1st instar / phylloxera counted: 2nd instar / phylloxera counted: 3rd instar / phylloxera counted: 4th instar / phylloxera counted: Adults / phylloxera counted: Eggs: roots taken 5 weeks after treatment, 25 day bioassay
Excerpt: […] For this bioassay, root sections were inoculated with 20 eggs and the roots maintained as the original colonies were maintained (see description above). After 25 days, the number of individual phylloxera of each age class were counted.

powdery mildew [3] = assay: powdery mildew on Chardonnay grapes; type: in vivo
Description: The effect of 0.3% and 0.6% cinnamic aldehyde on pacific mites on grapevine leaves was examined cinnamic aldehyde was diluted to 0.3% and 0.6% in water. Each formulation was sprayed onto a 1 acre block of Chardonnay wine grapes with a tractor-drawn 500 gal. hydraulic sprayer at 150 psi at a rate of 150 gal./acre. As a control, a 10-acre block of Chardonnay wine grapes was treated the same day as the test formulations with the conventional treatment (Omite) per label directions. The number of mites was counted the day prior to spraying and 4 days after spraying. […] In fact, both concentrations reduced the number of mites to a larger extent than the positive control, conventional treatment, Omite. The 0.6% rate nearly eliminated live mites on grapevines. […] The 0.6% was slightly beter than the 0.3 % cinnamic aldehyde with respect to powdery mildew control.
The effect of 0.4% cinnamic aldehyde on powdery mildew and pacific mites on grapes was examined. Cinnamic aldehyde was diluted to 0.4% in water and sprayed onto a 1.8 acre test plot of Chardonnay grapevines with a tractor drawn, PTO powered sprayer, spraying at approximately 100 psi at a rate of 150 gal./acre. A 3 acre untreated plot served as a negative control. Additional controls included treatment of a 3.8 acre plot with stylet oil and a plot treated with a mix of Rubigan, Omite, and stylet oil, which cost appriximately $60.00/acre. Spray cards were placed randomly through the test block. Ten fruit clusters, which were generally completely covered with powdery mildew, in each of the four fields were flagged. […] Therefore, cinnamic aldehyde was effective at controlling both powdery mildew and pacific mites on grapes.

leafhoppers = leafhoppers on cabernet sauvignon grapevines, 0.3% spray; type: in vivo; conditions: 0.3% CNMA; two days after spraying; untreated 2.46
Description: The effect of 0.3% cinnamic aldehyde on leafhoppers and spider mites on grapevine leaves was examined. 30% cinnamic aldehyde was diluted 1:100 in water and sprayed one time on a 1 acre block of cabernet sauvignon grapevines in a vineyard using a 300 gal Pul-Blast rsprayer at 160 psi. 120 gal. were applied to one acre of vineyard. As a control, a one-acre block remained untreated. Blocks were pseudo-replicated so as to obtain an indication of the reliability of the treatment. Prior to treatment mites on leaves were pre-counted using a dissecting microscope. Leafhopper numbers also were determined in the field prior to treatment. Two days after spraying, two leaves, one from the basal portion and one from the proximal portion of the vine were examined from 16 vines from 2 rows for each treatment. Leaf samples also were taken from both sides of the vines (north and south) to include variation due to vine exposure. […]

[4] = CNMA 0.4% in water, 150 gal./acre, controls stylet oil, chemical mix

How did the effect on mortality ([1]; 0.1 ppm in vehicle) turn out when O=C/C=C/c1ccccc1 [cinnamic aldehyde] was run?
The effect on mortality was “no effect on mortality”.

What about the effect on mortality ([1]; 1 ppm in vehicle) of the same compound?
The effect on mortality was “no effect on mortality”.

And the nematodes dead ([1]; 10 ppm in vehicle, 24 hours)?
The nematodes dead was 0%.

And the nematodes dead ([1]; 10 ppm in vehicle, 48 hours)?
Its nematodes dead is 15%.

What about the nematodes dead ([1]; 10 ppm in vehicle, 72 hours) of the same compound?
Its nematodes dead is 17.5%.

And the nematodes dead ([1]; 10 ppm in vehicle, 96 hours)?
The nematodes dead was 22.5%.

What about the nematodes dead ([1]; 10 ppm in vehicle, 108 hours) of the same compound?
Its nematodes dead is 27.5%.

And the nematodes dead ([1]; 10 ppm in vehicle, 132 hours)?
The nematodes dead was 52.5%.

And the nematodes dead ([1]; 10 ppm in vehicle, 156 hours)?
Its nematodes dead is 52.5%.

And the nematodes dead ([1]; greater than 100 ppm in vehicle (2% Tween 80, 6% NaHCO3), 24 hours)?
Its nematodes dead is 100%.

What about the “% CLUSTERS INFECTED-FIRST DAY” value (powdery mildew [2]; 0.3% CNMA) of the same compound?
Its value is 60%.

And the “MEAN # OF BERRIES/CLUSTER INFECTED FIRST DAY” value (powdery mildew [2]; 0.3% CNMA)?
The value was 3.1.

And the “% CLUSTERS INFECTED-SECOND DAY” value (powdery mildew [2]; 0.3% CNMA)?
The value was 0.22%.

What about the “MEAN # OF BERRIES/CLUSTER INFECTED SECOND DAY” value (powdery mildew [2]; 0.3% CNMA) of the same compound?
Its value is 0.72.

What about the “% CLUSTERS INFECTED-FIRST DAY” value (powdery mildew [2]; 0.6% CNMA) of the same compound?
Its value is 25%.

And the “MEAN # OF BERRIES/CLUSTER INFECTED FIRST DAY” value (powdery mildew [2]; 0.6% CNMA)?
The value was 0.5.

What about the “% CLUSTERS INFECTED-SECOND DAY” value (powdery mildew [2]; 0.6% CNMA) of the same compound?
The value was 0.2%.

What about the “MEAN # OF BERRIES/CLUSTER INFECTED SECOND DAY” value (powdery mildew [2]; 0.6% CNMA) of the same compound?
The value was 0.25.

And the “time control of powdery mildew was maintained” value (powdery mildew [2]; both treatments, 0.3% and 0.6%)?
The value was “at least three weeks”.

What about the “phylloxera counted: 1st instar” value (grape phylloxera; 300 ppm leaf treatment) of the same compound?
The value was 0.

And the “phylloxera counted: 2nd instar” value (grape phylloxera; 300 ppm leaf treatment)?
Its value is 6.

And the “phylloxera counted: 3rd instar” value (grape phylloxera; 300 ppm leaf treatment)?
Its value is 5.

And the “phylloxera counted: 4th instar” value (grape phylloxera; 300 ppm leaf treatment)?
The value was 0.

What about the “phylloxera counted: Adults” value (grape phylloxera; 300 ppm leaf treatment) of the same compound?
The value was 4.

What about the “phylloxera counted: Eggs” value (grape phylloxera; 300 ppm leaf treatment) of the same compound?
Its value is 16.

What about the “phylloxera counted: 1st instar” value (grape phylloxera; 1000 ppm leaf treatment) of the same compound?
The value was 0.

What about the “phylloxera counted: 2nd instar” value (grape phylloxera; 1000 ppm leaf treatment) of the same compound?
Its value is 1.

What about the “phylloxera counted: 3rd instar” value (grape phylloxera; 1000 ppm leaf treatment) of the same compound?
Its value is 4.

And the “phylloxera counted: 4th instar” value (grape phylloxera; 1000 ppm leaf treatment)?
Its value is 2.

And the “phylloxera counted: Adults” value (grape phylloxera; 1000 ppm leaf treatment)?
Its value is 1.

And the “phylloxera counted: Eggs” value (grape phylloxera; 1000 ppm leaf treatment)?
Its value is 2.

And the “phylloxera counted: 1st instar” value (grape phylloxera; 3000 ppm leaf treatment)?
Its value is 0.

And the “phylloxera counted: 2nd instar” value (grape phylloxera; 3000 ppm leaf treatment)?
Its value is 2.

What about the “phylloxera counted: 3rd instar” value (grape phylloxera; 3000 ppm leaf treatment) of the same compound?
The value was 1.

And the “phylloxera counted: 4th instar” value (grape phylloxera; 3000 ppm leaf treatment)?
The value was 1.

What about the “phylloxera counted: Adults” value (grape phylloxera; 3000 ppm leaf treatment) of the same compound?
Its value is 0.

What about the “phylloxera counted: Eggs” value (grape phylloxera; 3000 ppm leaf treatment) of the same compound?
Its value is 0.

What about the “phylloxera counted: 1st instar” value (grape phylloxera; 10,000 ppm leaf treatment) of the same compound?
The value was 0.

And the “phylloxera counted: 2nd instar” value (grape phylloxera; 10,000 ppm leaf treatment)?
Its value is 2.

What about the “phylloxera counted: 3rd instar” value (grape phylloxera; 10,000 ppm leaf treatment) of the same compound?
The value was 0.

What about the “phylloxera counted: 4th instar” value (grape phylloxera; 10,000 ppm leaf treatment) of the same compound?
The value was 0.

What about the “phylloxera counted: Adults” value (grape phylloxera; 10,000 ppm leaf treatment) of the same compound?
Its value is 0.

What about the “phylloxera counted: Eggs” value (grape phylloxera; 10,000 ppm leaf treatment) of the same compound?
Its value is 0.

What about the “establishment of new phylloxera populations on roots from treated plants” value (grape phylloxera; roots taken 1, 2 and 5 weeks after treatment, infested with untreated eggs) of the same compound?
The value was “not from the CNMA-treated plants”.

What about the “% INHIBITION (PM)” value (powdery mildew [3]; [4]) of the same compound?
The value was 88%.

And the “PM POST-SPRAY” value (powdery mildew [3]; [4])?
Its value is 10.

What about the “PM PRE-SPRAY” value (powdery mildew [3]; baseline, CNMA 0.4% plot, stylet oil plot, chemical mix plot) of the same compound?
The value was 84.

And the “incidence of powdery mildew (not quantitated)” value (powdery mildew [3]; both treatments, 0.3% and 0.6% in water, Chardonnay)?
The value was “markedly reduced”.

And the LEAFHOPPERS/LEAF (leafhoppers)?
The LEAFHOPPERS/LEAF was 0.16.
